Assay results reported in PMC10541456, “A phase I, single‐center, open‐label study to investigate the absorption, distribution, metabolism and excretion of encorafenib following a single oral dose of 100 mg [ ^14C] encorafenib in healthy male subjects” (Pharmacology Research & Perspectives, 2023).
“And” between values parts separate entries of the source, which are not always exact repeats. Equal values may be shown once. Read-outs that look alike come from different tables or passages of the source.

Columns and labels:
[1] = Mass balance: excretion of radioactivity in urine and feces (LSC); format: in vivo, human
Protocol: (§1) This study (ClinicalTrials.gov ID, NCT01436656) was a single‐center, open‐label study to investigate the ADME of encorafenib after a single oral administration of 100 mg (90 μCi) [^14C] encorafenib in healthy male subjects. A total of four evaluable subjects were enrolled and dosed. The study consisted of a screening period, a baseline period, a single dose treatment and a 96 h post‐dose observation period. A safety follow‐up assessment by phone was conducted 30 days after administration of 100 mg (90 μCi) [^14C] encorafenib. Subjects completed an overnight fast of at least 10 h prior to administration of the study drug. Subjects were discharged from the clinical site provided that the subject's recovery of [^14C] encorafenib‐related radioactivity was at least 90% of the administered dose. The study duration period could be prolonged if the subject's recovery of related radioactivity was less than 90% by the fifth‐day post‐treatment or the subject had two consecutive 24‐h combined urine and fecal collections yielding ≥1% of dose.
(§2) Venous blood samples (18 mL/time point) were collected by either direct venipuncture or from an indwelling cannula inserted into a vein of the forearm into tubes containing potassium ethylene diamine tetra acetic acid (K2‐EDTA) at the following times for metabolite characterization, total radioactivity and parent drug analysis: Pre‐dose, 0.5, 1, 1.5, 2, 3, 4, 6, 8, 12, 24, 48, 72, 96, 120 and 144 h post‐dose. Urine samples were collected into pre‐weighed, uniquely labeled containers pre‐dose (before drug administration) and at the following intervals: 0–4, 4–8, 8–24, 24–48, 48–72, 72–96, 96–120 and 120–144 h post‐dose. Feces samples were collected quantitatively into uniquely labeled, polypropylene containers pre‐dose (before drug administration) and individually until 144 h post‐dose. Urine and feces samples were frozen at −20°C and blood samples at −70°C.
Analysis of total radioactivity data in plasma, blood, feces, and urine was performed by Covance Laboratories Inc. All sample combustions were performed in a Model 307 Sample Oxidizer (Packard Instrument Company) and the resulting ^14CO2 was trapped in a mixture of Perma Fluor™ (Perkin Elmer) and Carbo Sorb® (Perkin Elmer). Oxidation efficiency was evaluated on each day of sample combustion by analyzing a commercial radiolabeled standard both directly in a scintillation cocktail and by oxidation. […] EcoLite™(+) scintillation cocktail was used for samples analyzed directly. All samples were analyzed for radioactivity in Model 2900TR or 2910TR liquid scintillation counters (Packard Instrument Company) for at least 5 min or 100 000 counts. […] All samples were analyzed in duplicate or triplicate, as applicable, if sample size allowed. If results from sample replicates (calculated as ^14C disintegrations per minute (dpm)/g sample) differed by more than 10% from the mean value and sample aliquots had radioactivity greater than 200 dpm, the sample was re‐homogenized or remixed and reanalyzed (if the sample size permitted).
Blood samples were mixed and duplicate aliquots of each (approximately 0.4 g) were combusted and analyzed by liquid scintillation […]. Plasma and urine samples were separately mixed and duplicate weighed aliquots of each (approximately 0.4 g for plasma and 0.2 g for urine) were analyzed directly by LSC. […] Feces samples were analyzed individually (samples were not combined by interval) and the weight of each individual sample was recorded. […]

[2] = Total radioactivity PK in whole blood; format: in vivo, human
Protocol: as §2
Analysis of total radioactivity data in plasma, blood, feces, and urine was performed by Covance Laboratories Inc. All sample combustions were performed in a Model 307 Sample Oxidizer (Packard Instrument Company) and the resulting ^14CO2 was trapped in a mixture of Perma Fluor™ (Perkin Elmer) and Carbo Sorb® (Perkin Elmer). Oxidation efficiency was evaluated on each day of sample combustion by analyzing a commercial radiolabeled standard both directly in a scintillation cocktail and by oxidation. […] EcoLite™(+) scintillation cocktail was used for samples analyzed directly. All samples were analyzed for radioactivity in Model 2900TR or 2910TR liquid scintillation counters (Packard Instrument Company) for at least 5 min or 100 000 counts. Each sample was homogenized or mixed before radioanalysis (unless the entire sample was used for analysis). All samples were analyzed in duplicate or triplicate, as applicable, if sample size allowed. If results from sample replicates (calculated as ^14C disintegrations per minute (dpm)/g sample) differed by more than 10% from the mean value and sample aliquots had radioactivity greater than 200 dpm, the sample was re‐homogenized or remixed and reanalyzed (if the sample size permitted).
Blood samples were mixed and duplicate aliquots of each (approximately 0.4 g) were combusted and analyzed by liquid scintillation […]. Plasma and urine samples were separately mixed and duplicate weighed aliquots of each (approximately 0.4 g for plasma and 0.2 g for urine) were analyzed directly by LSC. Urine volumes provided by the Covance clinical research unit were entered as a weight assuming a specific gravity of 1 g/mL. Feces samples were analyzed individually (samples were not combined by interval) and the weight of each individual sample was recorded. A weighed amount of methanol:water (20:80, v:v; approximately 2 to 3 times the sample weight, such that the homogenate weight:sample weight ratio was approximately 3 to 4) was added and the sample was mixed and homogenized using a probe type homogenizer. Triplicate‐weighed aliquots (approximately 0.2 g) were combusted and analyzed by LSC. The empty treatment vial from each subject was analyzed by adding a weighed amount of methanol to each vial and analyzing duplicate weighed aliquots (approximately 0.5 g) of each extract by LSC. Residual radioactivity recovered from each treatment vial was subtracted from the dose administered to the appropriate subject.
The total radioactivity in blood and plasma was determined by LSC. Nominal sampling time points were used for deriving total radioactivity blood and plasma PK data. PK parameters (maximum concentration (C max), time to maximum concentration (T max), terminal half‐life(t 1/2) time to last measurable concentration (T last), area under the curve to the last measurable time point (AUClast), area under the curve extrapolated to infinity (AUCinf)) describing blood and plasma total radioactivity were determined using non‐compartmental methods via WinNonlin® Professional (Version 6.3, Pharsight). […]

[3] = Plasma PK of non-radiolabeled encorafenib; format: in vivo, human; conditions: for Vd/F: read-out: Vz/F
[4] = Safety and tolerability in healthy male subjects; format: in vivo, human
Protocol: as §1

[5] = set-up: method as in data on file; conditions: in vitro study; ref data on file; cited from earlier work
[6] = mean, through last collection interval (144 h)
[7] = whole blood, Median (Minimum–Maximum)
[8] = human, plasma, oral, 100 mg, GeoMean (GeoCV%)
[9] = human, plasma, oral, 100 mg, Mean (SD)
[10] = human, plasma, oral, 100 mg, Median (Minimum–Maximum)
[11] = plasma, Median (Minimum–Maximum)
[12] = single 100 mg oral dose, 4 healthy male subjects

Compound: COC(=O)N[C@@H](C)CNc1nccc(-c2cn(C(C)C)nc2-c2cc(Cl)cc(NS(C)(=O)=O)c2F)n1 [encorafenib]
- Fraction of oral absorption (Fa) ([1]; estimated from urine radioactivity plus fecal metabolites, assumes stability in feces and GI tract): ≥ 86%
- Mass balance (total radioactivity recovered) ([1]; mean ± SD of four subjects, by end of Day 6 (144 h post-dose)): 94.5 ± 0.63 % dose
- Radioactivity recovered in feces [1, 6]: 47.2 % of the dose
- Radioactivity recovered in urine [1, 6]: 47.2 % of the dose and 47 % of the dose
- Overall recovery of radioactivity in the excreta, in all four subjects ([1]; single oral 100 mg [14C] encorafenib, urine + feces, bound holding for each subject): ≥ 93.9% and > 90%
- [blood]:[plasma] AUC ratio for total radioactivity ([2]; mean): 0.58
- [blood]/[plasma] total radioactivity, 1 to 24 h post-dose ([2]; mean (SD)): 0.59 [0.02]
- AUCinf, total radioactivity ([2]; whole blood, Mean (SD)): 8950 (1310) ngEq*h/mL
- Cmax, total radioactivity ([2]; whole blood, Mean (SD)): 1330 (103) ngEq/mL
- T1/2, total radioactivity ([2]; whole blood, Mean (SD)): 4.8 h and 4.8 (0.48) h
- AUCinf, total radioactivity [2, 7]: 8760 (7670–10 600) ngEq*h/mL
- Cmax, total radioactivity [2, 7]: 1320 (1230–1460) ngEq/mL
- T1/2, total radioactivity [2, 7]: 4.6 (4.5–5.5) h
- Tmax, total radioactivity [2, 7]: 1.0 h
- Variability of apparent oral clearance, this study ([3]; healthy subjects, 100 mg): 37%
- AUC(0-t) ([3]; human, plasma, oral, 100 mg, plasma, GeoMean (GeoCV%), read-out: AUC0-24): 3680 ng·h/mL
- AUC(0-t) ([3]; human, plasma, oral, 100 mg, plasma, GeoMean (GeoCV%), read-out: AUClast): 3720 ng·h/mL
- AUC(0-t) ([3]; human, plasma, oral, 100 mg, plasma, Mean (SD), read-out: AUC0-24): 3850 ng·h/mL
- AUC(0-t) ([3]; human, plasma, oral, 100 mg, plasma, Mean (SD), read-out: AUClast): 3910 ng·h/mL
- Vd/F ([3]; human, plasma, oral, 100 mg, plasma, Mean (SD)): 235 L
- AUC(0-t) ([3]; human, plasma, oral, 100 mg, plasma, Median (Minimum–Maximum), read-out: AUC0-24): 3570 ng·h/mL
- AUC(0-t) ([3]; human, plasma, oral, 100 mg, plasma, Median (Minimum–Maximum), read-out: AUClast): 3600 ng·h/mL
- Vd/F ([3]; human, plasma, oral, 100 mg, plasma, Median (Minimum–Maximum)): 228 L
- AUC(0-inf) [3, 8]: 3750 ng·h/mL
- Cmax [3, 8]: 1040 ng/mL
- half-life [3, 8]: 5.88 h
- Cmax [3, 9]: 1050 ng/mL
- half-life [3, 9]: 6.11 h
- AUC(0-inf) [3, 10]: 3610 ng·h/mL
- Cmax [3, 10]: 1080 ng/mL
- half-life [3, 10]: 6.32 h
- Vd/F ([3]; male, human, plasma, oral, 100 mg, plasma, GeoMean (GeoCV%)): ~226 L
- Tmax ([3]; male, human, plasma, oral, 100 mg, plasma, Median (Minimum–Maximum), read-out: Tmax): 0.77 h
- AUC(0-inf) ([3]; male, human, plasma, po, 100 mg, Mean (SD), n=4, 100 mg oral): 3940 ng·h/mL
- Vz/F ([3]; plasma, GeoMean (GeoCV%)): 226 (32.7) L
- CL/F ([3]; plasma, Mean (SD)): 27.9 (9.15) L/h
- CL/F [3, 11]: 28.4 (17.1–37.6) L/h
- Tmax [3, 11]: 0.767 (0.500–1.00) h
- Grade 2, 3 or 4 adverse events ([4]; single 100 mg oral dose): No grade 2, 3 or 4 AEs were reported
- Subjects with AEs suspected to be related to the study drug [4, 12]: 50.0%
- Subjects with at least one adverse event [4, 12]: 75.0%
- Laboratory evaluations, vital signs, ECG ([4]; single-dose administration): no significant abnormalities
- Overall safety and tolerability ([4]; single-dose administration): safe and well‐tolerated
- [blood]/[plasma] in vitro [5]: 0.75 ± 0.21
